Patent US9669063B2, “Composition for prevention, amelioration or treatment of metabolic syndrome” (MORISHITA JINTAN CO., LTD., priority 2012, dated 2017)

Tested on: diet-induced obese mice
Experiment: Test Example 2: diet-induced obese mice on low-calorie feed with RHP, caffeine or their mixture, body weight, calorie intake, epididymal fat
Assay type: in vivo, KK mice
Description: Mice were fed with a high-calorie feed for the preparation of diet-induced obese mice. The calorie intake of the diet-induced obese mice was restricted so as to induce a state of facilitated resolution and utilization of body fat, and then the composition of the present invention containing a rose hip extract and caffeine was given to the mice. In this way, examination was conducted to determine whether the composition could facilitate the resolution and utilization of body fat and thereby ameliorate obesity. Five-week-old male KK mice were fed with water and the powder feed for breeding for three days, and then fed with the high-calorie feed for 3 weeks for the preparation of diet-induced obese mice. The diet-induced obese mice were divided into three groups (six mice per group) and fed with the feed (1) to (3) shown below for 2 weeks. The feeds given to the test groups are as follows. […] After the end of the test, the mice were euthanized, and epididymal fat tissue was harvested and weighed. […] The results are shown as the mean±SD of each group. Diet-induced obese mice were divided into four groups (six mice per group) and fed with the feed (4) to (7) shown below. Other test conditions were the same as in Test Example 1. The results in Table 3 were statistically analyzed by Dunnett's multiple comparison test. The symbol ** indicates a significant difference with a risk less than 1% from the control group.

## Cn1c(=O)c2c(ncn2C)n(C)c1=O [caffeine]
0.025 mass % caffeine in low-calorie feed
  reduction in weight of epididymal fat tissue as compared with the control group: 9.2%
0.025 mass % caffeine in low-calorie feed, Dunnett's test
  statistical significance of fat-reducing effect vs control: none of them showed any statistically significant fat-reducing effect
low-calorie feed + 0.025 mass % caffeine, 2 weeks, last day of test, mean±SD
  Body weight: 35.2 ± 1.8 g
low-calorie feed + 0.025 mass % caffeine, 2 weeks, mean±SD
  Epididymal fat weight: 1.60 ± 0.19 g/100 g body weight
